Source: patent US20250051282A1, “COMPOUNDS FOR TREATING POLYQ-RELATED NEURODEGENERATIVE DISORDERS” (HANGZHOU JIJING PHARMACEUTICAL TECHNOLOGY LIMITED, priority 2021, published 2025)

System: ATXN1(60Q)
Assay: Daoy-ATXN1(60Q)-mATXN1 MSD assay (CTG normalized)
Type: cell-based
Conditions: Daoy-Flag-ATXN1(60Q) stable cells, compound added Day 2, lysis Day 3, final DMSO 0.3%, read-out: Daoy-ATXN1(60Q)-mATXN1 MSD (CTG normalized) DC50
Description: Protocol for MSD Assay: Daoy-ATXN1(600)-mATXN1 MSD (CTG normalized)
The Flag-ATXN1(60Q) gene is synthesized by Genescript and cloned into the pLVX-IRES-Puro vector (Takarabio, catalog No. 632183) using EcoRI/BamHI restriction enzyme sites. Lentivirus is made by transfecting HEK293T cells with pLVX-IRES-Puro-Flag-ATXN1(60Q) plasmids and packaging plasmids psPAX2 and pMD2.G at 4:3:1 ratio (8:6:[…], respectively) in 10 cm plates, and are harvested at 48 hours post transfection. Daoy cells (ATCC catalog No. HTB-186) seeded in T25 flasks are infected with the lentivirus in the presence of 8 µg/mL polybrene (Sigma, TR-1003-G) for 24 hours. 48 hours post infection, the cells are selected using 0.5 […] (Sigma, P8833) for more than 5 days until all cells in the uninfected group die. The expression of Flag-ATXN1(60Q) is verified by anti-Flag immunoblot using anti-Flag antibody (Sigma, F1804-200UG, M2).
As explained above, Daoy-Flag-ATXN1(60Q) cells are prepared as a stable cell line by infecting Daoy cells with lentivirus. The media for the cells is EMEM (ATTC, 30-2008) with 10% fetal bovin serum (FBS).
On Day 1, the Daoy-Flag-ATXN1(60Q) cells are seeded in a 96 well plate at a concentration of 1.2×10^4/well. On Day 2, the cells are treated with test compounds at test concentrations (compounds are serially diluted with DMSO to obtain test concentrations, such that final DMSO concentration is 0.3%). On Day 3, the cells are washed with 100 μL of phosphate-buffered saline (PBS) per well, and then 30 μL of radioimmuno-precipitation assay (RIPA) buffer (with protease and phosphatase inhibitor cocktail) is added to each well.
The well plate is then cooled on ice for 30 minutes in order to complete lysis, and MSD samples are prepared using 10 μL of Daoy-Flag-ATXN1-60Q lysate and 90 μL of RIPA buffer with gentle mixing. Each MSD sample has a total volume of 100 μL, and is used immediately or stored at −80° C.
A standard Meso Scale Discovery (MSD) plate is coated with anti-Flag (Sigma, F1804-200UG, M2) in PBS at 1:500 dilution ratio and 40 µL/well, and is incubated at 4° C. overnight with shaking at 600 rpm. Then, the MSD plate is washed 3 times with 150 µL/well of 1X TBST (tris-buffered saline (TBS) with Tween 20) buffer, and the MSD plate is blocked with 150 μL of blocking buffer [3% Blocker A in 1X TBST, (3 g Blocker A per 100 mL 1X TBST)] and shaken for 1 hour at 600 rpm at room temperature. Then, the MSD plate is washed three times with 150 μL/well of 1X TBST. Next, the diluted lysate samples (from Sample Preparation above) are added to the MSD plate at 25 μL/well, and the MSD plate is shaken at 600 rpm for 1 hour at room temperature. Then the MSD plate is washed 3 times with 150 μL/well of 1X TBST.
Detection antibody anti-Ataxin 1 (G-bio, ITA1916) (1:500), which is prepared in antibody detection buffer (1% Blocker A in 1X TBST), is then added to the MSD plate at 25 µL/well, and the MSD plate is shaken at 600 rpm for 1 hour at room temperature. The MSD plate is then washed three times with 150 μL/well of 1X TBST. Next, a secondary detection antibody, Goat anti-rabit (GAR) with SULFO-TAG (1:500), which is prepared in antibody detection buffer (1% Blocker A in 1X TBST), is added at 25 μL/well and the MSD plate is shaken at 600 rpm for 1 hour at room temperature. Then the MSD plate is washed 3 times with 150 μL/well of 1X TBST, and 2X MSD reading buffer is added at 150 μL/well (diluted from 4x MSD reading buffer with water). Finally, the signal from each well is measured on the MSD Meso QuickPle SQ120 Plate Reader. DC50 data is calculated using collaborate drug discovery (CDD) software (https://www.collaborativedrug.com/about).

Row | SMILES | DC50
1 | N/C(=C1\C(=O)Nc2ccc(Br)cc21)c1cc(O)c(Br)cn1 [Example 83, (Z)-3-(amino(5-bromo-4-hydroxypyridin-2-yl)methylene)-5-bromoindolin-2-one] | > 30 µM
2 | N/C(=C1\C(=O)Nc2ccc(Br)cc21)c1cncc(O)c1 [Example 84, (Z)-3-(amino(5-hydroxypyridin-3-yl)methylene)-5-bromoindolin-2-one] | < 10 µM
3 | C/C(=C1\C(=O)Nc2ccc(Br)cc21)c1cccc(O)c1 [Example 85, (E)-5-bromo-3-(1-(3-hydroxyphenyl)ethylidene)indolin-2-one] | 10 to 30 µM
4 | C/C(=C1\C(=O)Nc2ccc(Br)cc21)c1ccc2[nH]c(=O)oc2c1 [Example 88, (E)-6-(1-(5-bromo-2-oxoindolin-3-ylidene)ethyl)benzo[d]oxazol-2(3H)-one] | > 30 µM
5 | C/C(=C1\C(=O)Nc2ccc(Br)cc21)c1ccc(F)c(O)c1 [Example 92, (E)-5-bromo-3-(1-(4-fluoro-3-hydroxyphenyl)ethylidene) indolin-2-one] | < 10 µM
6 | CC(=C1C(=O)Nc2ccc(C(F)(F)F)cc21)c1cccc(O)c1 [Example 95, 3-(1-(3-Hydroxyphenyl)ethylidene)-5-(trifluoromethyl) indolin-2-one] | < 10 µM
7 | C/C(=C1\C(=O)Nc2ccc(Br)cc21)c1cc(O)c(O)c(Br)c1 [Example 98, 5-Bromo-3-(1-(3-bromo-4,5-dihydroxyphenyl)ethylidene)indolin-2-one] | > 30 µM
8 | CCC/C(=C1\C(=O)Nc2ccc(Br)cc21)c1cccc(O)c1 [Example 100, (E)-5-bromo-3-(1-(3-hydroxyphenyl)butylidene)indolin-2-one] | < 10 µM
